The subject of series [1] is SFV. The series is described as follows: microbe, parasite or virus in culture. The series is classed as cell-based, Semliki Forest virus. The conditions noted are these: for inhibition at 10 µM / IC50: Semliki Forest virus; for inhibition at 10 µM: M-HeLa, read-out: % inhibition (SFV screen); for IC50: HeLa Kyoto.
Series [2] is described as follows: in vitro. The conditions noted are these: human.
The nature of series [3]: in vitro. The settings on record: human. The source holds these as a separate data set.
For series [4], the system named is HeLa Kyoto cells. The conditions noted are these: human.
Series [5] has as its system DENV-2. The series is described as follows: DENV-2 infection assay / secondary screen (E protein staining). The settings on record: Dengue virus, DENV2, Huh-7, 24 h, read-out: % inhibition (DENV-2 screen). The series is classed as cell-based, dengue virus serotype 2.
Series [6] concerns HeLa Kyoto cells. The settings on record: human, 10 µM.

This note sets out measurements from paper PMC6410080 (Viruses, 2019).

Where a name gives a salt, the structure may show the parent alone. Read-outs that look alike come from different tables or passages of the source.

By inhibition is commonly meant the drop in the measured response relative to a control, in per cent. By viability is commonly meant a read-out of living cells in per cent, often relative to untreated cells. `O=C1NCCN1CCN1CCC(c2cn(-c3ccc(F)cc3)c3ccc(Cl)cc23)CC1` [Sertindole]: the inhibition at 10 µM in series [1] (7 h) was 67.2%. Besides, the viability at 10 µM is 26.6% in series [2] and 105% in series [3] (% viability (SFV screen)).
For the molecule `CCN(CC)CCOc1ccc(C(=C(Cl)c2ccccc2)c2ccccc2)cc1` [Clomiphene, Clomiphene citrate (Z,E)], the inhibition at 10 µM in series [1] (7 h) turned out to be 77.8%; in series [5] it was 99.3%. For the same molecule, in series [4], the “TC50 SFV (7h)” value came out at 27.4 mM. In addition, the viability at 10 µM in series [2] stood at 41.8%; in series [3] (% viability (SFV screen)), 97.1%.
As to `Nc1ccn([C@@H]2O[C@H](CO)[C@@H](O)C2(F)F)c(=O)n1` [Gemcitabine], the inhibition at 10 µM in series [1] (7 h) is 67%; in series [5] it was -137%. The values for the viability at 10 µM in series [2] and in series [3] (% viability (SFV screen)) were 61.8% and 102%, respectively.
As for `C=C(NC(=O)C(=C)NC(=O)c1csc(C2=N[C@@H]3c4csc(n4)[C@H]4NC(=O)c5csc(n5)[C@H]([C@](C)(O)[C@@H](C)O)NC(=O)[C@H]5CSC(=N5)/C(=C/C)NC(=O)[C@H]([C@@H](C)O)NC(=O)c5csc(n5)[C@]3(CC2)NC(=O)[C@H](C)NC(=O)C(=C)NC(=O)[C@H](C)NC(=O)[C@H]([C@@H](C)CC)N[C@@H]2C=Cc3c([C@H](C)O)cc(nc3[C@H]2O)C(=O)O[C@@H]4C)n1)C(N)=O` [Thiostrepton], the inhibition at 10 µM in series [1] (7 h) was determined as 65.9%. Also, the viability at 10 µM came to 18.7% in series [2] and 88.5% in series [3] (% viability (SFV screen)).
For the molecule `Nc1c2ccccc2nc2ccccc12` [Aminacrine], the inhibition at 10 µM in series [1] (7 h) amounted to 89.2%. The results for the viability at 10 µM in series [2] and in series [3] (% viability (SFV screen)) were 23.3% and 87.4%, respectively.
In the case of `CN1CCN(CCCN2c3ccccc3Sc3ccc(Cl)cc32)CC1` [Prochloperazine, Prochlorperazine dimaleate], the figures for the inhibition at 10 µM in series [1] (7 h) and in series [5] were 73.3% and 98.9%, respectively. Besides, the “TC50 SFV (7h)” value in series [4] is 22.7 mM. In addition, the values for the viability at 10 µM in series [2] and in series [3] (% viability (SFV screen)) were 46.7% and 84%, respectively.
Consider `CSc1ccc2c(c1)C(N1CCN(C)CC1)Cc1ccccc1S2` (stereo not drawn) [Methiothepin mesylate], for which the inhibition at 10 µM in series [1] (7 h) came to 84%. In addition, the viability at 10 µM in series [2] was found to be 0.1%; in series [3] (% viability (SFV screen)) it was 66.6%.
As to `Nc1ncn([C@@H]2O[C@H](CO)[C@@H](O)[C@H]2O)c(=O)n1` [5-azacytidine], in series [1] (10 µM), the “% inhibition (SFV screen)” value was 101.05%. The results for the inhibition at 10 µM in series [1] (7 h) and in series [5] were 99.8% and 9.67%, respectively. The viability at 10 µM in series [2] was 106%; in series [3] (% viability (SFV screen)) it was 75.5%. In addition, in series [6], the “% viability (SFV screen)” value was 75.30%.
Consider `C1CCC(C(CC2CCCCN2)C2CCCCC2)CC1` (stereo not drawn) [Perhexiline maleate], for which the inhibition at 10 µM in series [1] (7 h) worked out at 101%. For the same molecule, the viability at 10 µM in series [2] worked out at 1.42%; in series [3] (% viability (SFV screen)), 62.9%.
Turning to `C/C=C(/C)C(=O)O[C@H]1C(C)=C2[C@H]([C@@H]1OC(=O)CCCCCCC)[C@@](C)(OC(C)=O)C[C@H](OC(=O)CCC)[C@@]1(O)[C@H]2OC(=O)[C@@]1(C)O` [Thapsigargin], the results for the inhibition at 10 µM in series [1] (7 h) and in series [5] were 83.4% and 98%, respectively. The figures for the viability at 10 µM in series [2] and in series [3] (% viability (SFV screen)) were 53.3% and 103%, respectively.
The matching figures for `Clc1cc(Cl)c(OCC#CI)cc1Cl` [Haloprogin]: 99.8%, 1.64%, 104% and 75.4%.
On to `Cc1ccc(S(=O)(=O)NC(=O)NN2CCCCCC2)cc1` [Tolazamide], for which the results for the inhibition at 10 µM in series [1] (7 h) and in series [5] were 101% and 36.5%, respectively. The viability at 10 µM in series [2] amounted to 116%; in series [3] (% viability (SFV screen)), 113%.
The matching figures for `c1ccc2c(c1)OCC(C1=NCCN1)O2` (stereo not drawn) [Idazoxan hydrochloride]: 94.5%, 48.8%, 71.2% and 67.6%.
Consider `OC(c1cc(C(F)(F)F)nc2c(C(F)(F)F)cccc12)C1CCCCN1` (stereo not drawn) [Mefloquine hydrochloride], for which the inhibition at 10 µM in series [1] (7 h) is 94.3%; in series [5], -22.1%. The viability at 10 µM in series [2] was determined as 7.25%; in series [3] (% viability (SFV screen)) it was 72.7%.
Broadly, the IC50 is the concentration needed to halve the response being measured. As to `CCCCN(CCCC)CCC(O)c1cc2c(Cl)cc(Cl)cc2c2cc(C(F)(F)F)ccc12` (stereo not drawn) [Halofantrine, Halofantrine hydrochloride], the half-inhibitory concentration (IC50) is 116 µM in series [1] (7 h, read-out: IC50 SFV) and > 100 µM in series [1] (read-out: IC50 SFV (7 h)). In addition, the inhibition at 10 µM in series [1] (7 h) was 102%; in series [5] it was 83.6%. Also, the “TC50 SFV (7h)” value in series [4] is 290.4 mM. The viability at 10 µM in series [2] is 89.4%; in series [3] (% viability (SFV screen)) it was 96.9%.
Consider `Nc1ncnc2c1ncn2[C@@H]1O[C@H](COP(=O)(O)O)[C@@H](O)[C@H]1O` [Adenosine 5'-monophosphate monohydrate], for which the inhibition at 10 µM is 73.4% in series [1] (7 h) and -177% in series [5]. The viability at 10 µM in series [2] was 105%; in series [3] (% viability (SFV screen)), 86.8%.
Regarding `CC/C(=C(\c1ccccc1)c1ccc(OCCN(C)C)cc1)c1ccccc1` [Tamoxifen citrate], the inhibition at 10 µM in series [1] (7 h) came out at 98.3%. Further, the viability at 10 µM in series [3] (% viability (SFV screen)) amounted to 61.7%.
Turning to `CSc1ccc2c(c1)N(CCC1CCCCN1C)c1ccccc1S2` (stereo not drawn) [Thioridazine hydrochloride], the inhibition at 10 µM in series [1] (7 h) came to 89.1%. The results for the viability at 10 µM in series [2] and in series [3] (% viability (SFV screen)) were 5.89% and 71.3%, respectively.
`C[C@@H]1C[C@@H]([C@H](O)CC2CC(=O)NC(=O)C2)C(=O)[C@@H](C)C1` [Cycloheximide]: the inhibition at 10 µM amounted to 99.9% in series [1] (7 h) and 64.5% in series [5]. Moreover, in series [2], the viability at 24 h, 10 µM worked out at 60.1%. For the same molecule, in series [3], the viability at 10 µM amounted to 94%.
Regarding `CCOC(=O)C1=C(C)NC(C)=C(C(=O)OCC)C1c1ccccc1/C=C/C(=O)OC(C)(C)C` [Lacidipine], in series [1] (7 h, read-out: IC50 SFV), the IC50 is 23.7 µM. Besides, the inhibition at 10 µM in series [1] (7 h) was determined as 79.8%; in series [5] it was 98%. For the same molecule, the “TC50 SFV (7h)” value in series [4] (7 h) came out at 27.7 mM. Also, the viability at 10 µM in series [2] stood at 75.7%; in series [3] (% viability (SFV screen)), 80.6%.
Regarding `CN1CCN(CCCN2c3ccccc3Sc3ccc(C(F)(F)F)cc32)CC1` [Trifluoperazine dihydrochloride], the inhibition at 10 µM in series [1] (7 h) amounted to 96.5%. Also, the viability at 10 µM in series [2] was determined as 0.13%; in series [3] (% viability (SFV screen)), 93.9%.
As for `[H]/N=C(\N/C(=N/[H])NCCCCCCNC(=N)NC(=N)Nc1ccc(Cl)cc1)Nc1ccc(Cl)cc1` [Chlorhexidine], the inhibition at 10 µM in series [1] (7 h) stood at 96.6%. The viability at 10 µM was 16.6% in series [2] and 96.2% in series [3] (% viability (SFV screen)).
The matching figures for `CN[C@@H]1C[C@@H](c2ccc(Cl)c(Cl)c2)c2ccccc21` [Indatraline hydrochloride]: 72.2%, 1.66% and 76.4%.
